Assay results from PubChem BioAssay (NCI).
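Test compounds were applied to cells in 96-well plates for 48 hours at 5 doses. GI50 marks 50% less growth. TGI marks complete inhibition of growth.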

Columns and labels:
Assay in all cases: NCI tumour cell line growth inhibition, 48 h
[1] = tested on: SN12C renal
[2] = tested on: OVCAR-8 ovarian
[3] = tested on: KM12 colon
[4] = tested on: NCI/ADR-RES ovarian
[5] = tested on: OVCAR-3 ovarian
[6] = tested on: K-562 leukemia
[7] = tested on: MALME-3M melanoma
[8] = tested on: NCI-H460 lung
[9] = tested on: SNB-75 CNS
[10] = tested on: MDA-MB-231 breast

Compound: COc1ccc(-c2ccc(-c3ccc(C(=N)N)nc3)s2)cc1
- GI50 [1]: 1830 nM
- TGI [1]: 3680 nM
- GI50 [2]: 2120 nM
- TGI [2]: 4870 nM
- GI50 [3]: 1810 nM
- TGI [3]: 3300 nM
- GI50 [4]: 1940 nM
- TGI [4]: 3750 nM
- GI50 [5]: 1820 nM
- TGI [5]: 3270 nM
- GI50 [6]: 1090 nM
- TGI [6]: 3530 nM
- GI50 [7]: 1840 nM
- TGI [7]: 3440 nM
- GI50 [8]: 524 nM
- TGI [8]: 1820 nM
- GI50 [9]: 1550 nM
- TGI [9]: 2880 nM
- GI50 [10]: 1750 nM
- TGI [10]: 3280 nM
